Measured values as given in PubChem BioAssay AID1918947 (Molecular Pharmacology Branch, DTP, NCI, 2023).
Values joined by “and” are separate entries in the source; they are usually repeats but may differ in a detail not shown here. Equal values may be shown once.

System: A498 complex spheroid viability
Experiment: Anticancer human tumor A498 cell line growth inhibition;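 also: spheroids exposed to agents for seven days before readout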;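 as to viability, T/C: 100% = DMSO vehicle-treated spheroids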
Conditions: for viability, T/C: stronger effect = lower value
Source text: Multicellular complex tumor spheroid response to LSD1 Inhibitor Iadademstat in combination with a variety of drugs and investigational agents in selected tumor cell lines
The current study was undertaken to assess response to LSD1 inhibitors in combination with standard-of-care drugs and investigational agents in solid tumor complex spheroid models as well as in the K-562 leukemia. Complex spheroids include a stromal component modeled by human endothelial cells (HUVEC) and fibroblasts modeled by human mesenchymal stem cells (MSCs). The concentration ranges selected for each drug and investigational agent were based upon clinically achievable concentrations if the clinical Cmax of the agent was known.
Compounds. The drugs and investigational agents used in this study are listed on Table 1. All of the agents used, including staurosporine (NSC755774) and gemcitabine (NSC613327), were obtained from the Developmental Therapeutics Program, NCI. FDA-approved anticancer drugs are available from the NCI at http://dtp.nci.nih.gov/branches/dscb/oncology_drugset_explanation.html. Drugs and investigational agents were >95% pure by proton nuclear magnetic resonance (NMR) and liquid chromatography/mass spectrometry (LC/MS). Stock solutions were prepared at 400x in DMSO, stored at -70 degrees C, and diluted in fresh medium prior to their use. The final concentration of DMSO in cell culture wells never exceeded 0.25% (v/v). The FDA-approved anticancer drug set is available from the Developmental Therapeutics Program at https://dtp.cancer.gov/organization/dscb/obtaining/available_plates.htm. All drugs and investigational agents were tested over a range starting from a high concentration at or near the clinical Cmax and decreasing in half-log increments. If the clinical Cmax for an agent had not been determined, the highest concentration tested was 10 microM.
Cell Lines. The patient-derived cancer cell (PDC) lines: 292921-168-R-J2-PDC, K24384-001-R-PDC, and 521955-158-R2-J5-PDC pancreatic carcinomas, 556581-035-R-J1 ovarian carcinoma, 324938-238-R-J1-PDC, 855422-203-R-J1-PDC and 883617-216-R-J1-PDC urothelial bladder carcinomas, 743489-274-T-PDC renal cell carcinoma, 138582-R-J1 Merkel cell tumor, K60290-347-R-J1 and K57222-313-R-J1-PDC glioblastomas, 653999-131-R-J2-PDC, LG0703-F948-PDC, and 349418-098-R-PDC non-small cell lung carcinomas, 885512-296-R-J2-PDC, 171881-019-R-J1-PDC breast carcinomas and 186277-243-T-J2-PDC and 233499-124-R-J2-PDC colon carcinomas were obtained from the NCI Patient-Derived Models Repository (PDMR, https://pdmr.cancer.gov). The established cell lines NCI/ADR-RES (RRID:CVCL_14520 and OVCAR-5 (RRID:CVCL_1628) ovarian carcinomas, 786-O (RRID:CVCL_1051) and A498 (RRID:CVCL_A498) renal cell carcinoma, NCI-H211 (ATCC, cat. CRL-5824; RRID:CVCL_1529), NCI-H196 (ATCC, cat. CRL-5823, RRID:CVCL_1509), SW 1271 (ATCC, cat. CRL-2177, RRID:CVCL_1716) and NCI-H1876 (ATCC, cat. CRL-5902, RRID:CVCL_1503) small cell lung carcinomas, MDA-MB-231 (RRID:CVCL_0062) and MDA-MB-468 (RRID:CVCL_0419)breast carcinomas (10-12). Pooled donor human umbilical vein endothelial cells (HUVEC, Lonza, cat. CC-2519) and human mesenchymal stem cells (hMSC, Lonza, cat. PT-2501) were purchased from Lonza (Walkersville, MD).
Cell Culture. All cells were maintained in an incubator at 37 degrees C and 5% CO2 with 95% humidity. The PDC lines were cultured according to standard operating procedures established by the NCI PDMR (https://pdmr.cancer.gov). Briefly all PDCs were thawed and cultured in Matrigel-coated flasks prepared with a working solution of 1X Ham's F-12 nutrient mix, without supplementation (Invitrogen, Waltham, MA, cat. 11765054), 100 U/mL penicillin-streptomycin (Invitrogen, cat. 15140122), and 2.5% Matrigel (Corning Inc., Corning, NY, cat. 354248) for the first three passages. […]

[1] = curve of first compound, second compound 0.1 µM
[2] = curve of first compound, second compound 0.316 µM
[3] = curve of first compound, second compound 1 µM
[4] = curve of first compound, second compound 3.16 µM
[5] = curve of first compound, second compound 10 µM

SMILES: CCN(c1cc(-c2ccc(CN3CCOCC3)cc2)cc(C(=O)NCc2c(C)cc(C)[nH]c2=O)c1C)C1CCOCC1
- viability, T/C (compound 0.00949 µM): 98.7% and 101%
- viability, T/C (compound 0.03 µM): 108% and 107%
- viability, T/C (compound 0.0949 µM): 98.7% and 102%
- viability, T/C (compound 0.3 µM): 103%
- viability, T/C (compound 0.949 µM): 107% and 105%
- viability, T/C (compound 3 µM): 112% and 113%
- IC50 (curve of compound): > 3000 nM

SMILES: CCN(c1cc(-c2ccc(CN3CCOCC3)cc2)cc(C(=O)NCc2c(C)cc(C)[nH]c2=O)c1C)C1CCOCC1 + NC1CCC(NC2CC2c2ccccc2)CC1
- IC50 [1]: > 3000 nM
- IC50 [2]: > 3000 nM
- IC50 [3]: > 3000 nM
- IC50 [4]: > 3000 nM
- IC50 [5]: > 3000 nM
- viability, T/C (second compound 0.1 µM, first compound 0.00949 µM): 85.8%
- viability, T/C (second compound 0.1 µM, first compound 0.03 µM): 90.7%
- viability, T/C (second compound 0.1 µM, first compound 0.0949 µM): 92.1%
- viability, T/C (second compound 0.1 µM, first compound 0.3 µM): 91.4%
- viability, T/C (second compound 0.1 µM, first compound 0.949 µM): 94.4%
- viability, T/C (second compound 0.1 µM, first compound 3 µM): 92.9%
- viability, T/C (second compound 0.316 µM, first compound 0.00949 µM): 93.2%
- viability, T/C (second compound 0.316 µM, first compound 0.03 µM): 101%
- viability, T/C (second compound 0.316 µM, first compound 0.0949 µM): 100%
- viability, T/C (second compound 0.316 µM, first compound 0.3 µM): 98.9%
- viability, T/C (second compound 0.316 µM, first compound 0.949 µM): 92.4%
- viability, T/C (second compound 0.316 µM, first compound 3 µM): 92.9%
- viability, T/C (second compound 1 µM, first compound 0.00949 µM): 91.7%
- viability, T/C (second compound 1 µM, first compound 0.03 µM): 97%
- viability, T/C (second compound 1 µM, first compound 0.0949 µM): 97.3%
- viability, T/C (second compound 1 µM, first compound 0.3 µM): 90.1%
- viability, T/C (second compound 1 µM, first compound 0.949 µM): 86.8%
- viability, T/C (second compound 1 µM, first compound 3 µM): 87.2%
- viability, T/C (second compound 3.16 µM, first compound 0.00949 µM): 87.3%
- viability, T/C (second compound 3.16 µM, first compound 0.03 µM): 95%
- viability, T/C (second compound 3.16 µM, first compound 0.0949 µM): 90.6%
- viability, T/C (second compound 3.16 µM, first compound 0.3 µM): 89.1%
- viability, T/C (second compound 3.16 µM, first compound 0.949 µM): 85.8%
- viability, T/C (second compound 3.16 µM, first compound 3 µM): 78.2%
- viability, T/C (second compound 10 µM, first compound 0.00949 µM): 80.4%
- viability, T/C (second compound 10 µM, first compound 0.03 µM): 87.5%
- viability, T/C (second compound 10 µM, first compound 0.0949 µM): 88.4%
- viability, T/C (second compound 10 µM, first compound 0.3 µM): 82.1%
- viability, T/C (second compound 10 µM, first compound 0.949 µM): 82.7%
- viability, T/C (second compound 10 µM, first compound 3 µM): 72.9%

SMILES: CC1COCCN1c1cc(-c2ccnn2C)c2ccnc(-c3ccn[nH]3)c2n1 (stereo not drawn)
- viability, T/C (compound 0.00316 µM): 103% and 100%
- viability, T/C (compound 0.01 µM): 82% and 81.8%
- viability, T/C (compound 0.0316 µM): 36.7% and 37.3%
- viability, T/C (compound 0.1 µM): 18.8% and 22.5%
- viability, T/C (compound 0.316 µM): 14.9% and 16.1%
- viability, T/C (compound 1 µM): 11.2% and 10.8%
- IC50 (curve of compound): 22.8 nM and 23.4 nM

SMILES: O=C(C=Cn1cnc(-c2cc(C(F)(F)F)cc(C(F)(F)F)c2)n1)NNc1cnccn1
- viability, T/C (compound 0.00316 µM): 71.3% and 66.5%
- viability, T/C (compound 0.01 µM): 42.9% and 36.6%
- viability, T/C (compound 0.0316 µM): 32.5% and 31.3%
- viability, T/C (compound 0.1 µM): 29.1% and 26.8%
- viability, T/C (compound 0.316 µM): 25.6% and 26.2%
- viability, T/C (compound 1 µM): 22.2% and 17.3%
- IC50 (curve of compound): 7.74 nM and 6.34 nM

SMILES: CC1COCCN1c1cc(C2(S(C)(=N)=O)CC2)nc(-c2ccnc3[nH]ccc23)n1 (stereo not drawn)
- viability, T/C (compound 0.0316 µM): 98.7% and 99.7%
- viability, T/C (compound 0.1 µM): 98.2% and 97.2%
- viability, T/C (compound 0.316 µM): 69.6% and 68.1%
- viability, T/C (compound 1 µM): 34.2% and 28.7%
- viability, T/C (compound 3.16 µM): 19% and 19.6%
- viability, T/C (compound 10 µM): 13.1% and 12%
- IC50 (curve of compound): 605 nM and 543 nM

SMILES: CC1COCCN1c1cc(-c2ccnn2C)c2ccnc(-c3ccn[nH]3)c2n1 (stereo not drawn) + NC1CCC(NC2CC2c2ccccc2)CC1
- IC50 [1]: 21.9 nM
- IC50 [2]: 24.7 nM
- IC50 [3]: 24.5 nM
- IC50 [4]: 22.8 nM
- IC50 [5]: 14.1 nM
- viability, T/C (second compound 0.1 µM, first compound 0.00316 µM): 83.9%
- viability, T/C (second compound 0.1 µM, first compound 0.01 µM): 76.2%
- viability, T/C (second compound 0.1 µM, first compound 0.0316 µM): 37.5%
- viability, T/C (second compound 0.1 µM, first compound 0.1 µM): 16.3%
- viability, T/C (second compound 0.1 µM, first compound 0.316 µM): 14%
- viability, T/C (second compound 0.1 µM, first compound 1 µM): 9.97%
- viability, T/C (second compound 0.316 µM, first compound 0.00316 µM): 89.7%
- viability, T/C (second compound 0.316 µM, first compound 0.01 µM): 79.6%
- viability, T/C (second compound 0.316 µM, first compound 0.0316 µM): 41.3%
- viability, T/C (second compound 0.316 µM, first compound 0.1 µM): 19.1%
- viability, T/C (second compound 0.316 µM, first compound 0.316 µM): 14.3%
- viability, T/C (second compound 0.316 µM, first compound 1 µM): 10.5%
- viability, T/C (second compound 1 µM, first compound 0.00316 µM): 84.8%
- viability, T/C (second compound 1 µM, first compound 0.01 µM): 74.4%
- viability, T/C (second compound 1 µM, first compound 0.0316 µM): 42.8%
- viability, T/C (second compound 1 µM, first compound 0.1 µM): 19.3%
- viability, T/C (second compound 1 µM, first compound 0.316 µM): 15%
- viability, T/C (second compound 1 µM, first compound 1 µM): 9.26%
- viability, T/C (second compound 3.16 µM, first compound 0.00316 µM): 81.5%
- viability, T/C (second compound 3.16 µM, first compound 0.01 µM): 71.2%
- viability, T/C (second compound 3.16 µM, first compound 0.0316 µM): 41.4%
- viability, T/C (second compound 3.16 µM, first compound 0.1 µM): 19.4%
- viability, T/C (second compound 3.16 µM, first compound 0.316 µM): 14.8%
- viability, T/C (second compound 3.16 µM, first compound 1 µM): 9.59%
- viability, T/C (second compound 10 µM, first compound 0.00316 µM): 71.5%
- viability, T/C (second compound 10 µM, first compound 0.01 µM): 58.9%
- viability, T/C (second compound 10 µM, first compound 0.0316 µM): 30.7%
- viability, T/C (second compound 10 µM, first compound 0.1 µM): 22.7%
- viability, T/C (second compound 10 µM, first compound 0.316 µM): 13.9%
- viability, T/C (second compound 10 µM, first compound 1 µM): 9.55%
